Reference: patent US8809341B2, “2,4-pyrimidinediamine compounds and uses as anti-proliferative agents” (Rigel Pharmaceuticals, Inc., priority 2003, dated 2014)

Key:
A549 cells = assay: in vitro antiproliferation assay, A549 (lung); format: cell-based
Description: (§1) The IC50 values of various compounds against a various different tumor cell lines were determined using standard in vitro antiproliferation assays. The tumor cell lines tested were as follows: A549 (lung); H1299 (lung), ACHN (kidney/p53 wt), CAKI (renal cell carcinoma), NCI-H460 (lung); HCT116 (colon/p53w0; HELA (cervix/p53 wt), HUH7 (liver/p53 wt), HUVEC (primary endothelial), LNCAP (prostate), HT-29 (colon); MCF-7 (breast); MCF-7 (breast/ER positive), MDA MB435S (breast); MDA MB231 (breast/ER negative), DU145 (prostate); BxPC-3 (pancreatic); SKOV-3 (ovarian); HepG2 (hepatic), NDHF primary normal human dermal fibroblast), SKMEL28 (breast/p53mut), SKMEL5 (breast/p53 wt), U20S (bone) and PC3 (prostate). […] A blank indicates the specified compound was not tested against the specified cell line.

H1299 cells = assay: in vitro antiproliferation assay, H1299 (lung); format: cell-based
Description: as §1

[1] = in vitro antiproliferation, A549 (lung) cells, Table 4, compounds with no designated stereochemistry tested as racemate
[2] = in vitro antiproliferation, H1299 (lung) cells, Table 4, compounds with no designated stereochemistry tested as racemate
[3] = IC50 class against A549 (lung) tumor cells
[4] = IC50 class against H1299 (lung) tumor cells
[5] = Homo sapiens, IC50 class against A549 (lung) tumor cells
[6] = Homo sapiens, NCI-H1299, IC50 class against H1299 (lung) tumor cells
[7] = A549 (lung) cells, antiproliferation

Structure (SMILES)	IC50 (A549 cells; [3]) [µM]	IC50 (H1299 cells; [4]) [µM]	further results
O=C1Nc2cc(Nc3nc(Nc4cccc(-c5ncco5)c4)ncc3F)ccc2OC1CCO (racemic) [compound 237]	–	–	IC50 (A549 cells; [1]): ≤ 20 µM; IC50 (H1299 cells; [2]): ≤ 20 µM
O=C1Nc2cc(Nc3nc(Nc4cccc(-c5cnco5)c4)ncc3F)ccc2OC1CCO (racemic) [compound 238]	–	–	IC50 (A549 cells; [1]): ≤ 20 µM; IC50 (H1299 cells; [2]): ≤ 20 µM
COc1cc(Nc2ncc(F)c(Nc3ccc4c(c3)NC(=O)C(C)S4(=O)=O)n2)cc(OC)c1 (racemic) [compound 250]	–	–	IC50 (A549 cells; [1]): ≤ 20 µM; IC50 (H1299 cells; [2]): ≤ 20 µM
Cc1cc(C)cc(Nc2ncc(F)c(Nc3ccc4c(c3)NC(=O)C(C)S4(=O)=O)n2)c1 (racemic) [compound 251]	–	–	IC50 (A549 cells; [1]): ≤ 20 µM; IC50 (H1299 cells; [2]): ≤ 20 µM
COc1ccc(Nc2ncc(F)c(Nc3ccc4c(c3)NC(=O)C(C)S4)n2)cc1F (racemic) [compound 288]	–	–	IC50 (A549 cells; [1]): ≤ 20 µM; IC50 (H1299 cells; [2]): ≤ 20 µM
CNC(=O)COc1cccc(Nc2ncc(F)c(NC3CCC3)n2)c1 [compound 109]	≤ 20	≤ 20	–
CCOC(=O)N1CCN(c2ccc(Nc3ncc(F)c(N(C)C4CCC4)n3)cc2)CC1 [compound 126]	≤ 20	≤ 20	–
CN(c1nc(Nc2cccc(N3CCOCC3)c2)ncc1F)C1CCC1 [compound 127]	≤ 20	≤ 20	–
CC(=O)N1CCN(c2cccc(Nc3ncc(F)c(N(C)C4CCC4)n3)c2)CC1 [compound 128]	≤ 20	≤ 20	–
CN1CCN(c2cccc(Nc3ncc(F)c(N(C)C4CCC4)n3)c2)CC1 [compound 129]	≤ 20	≤ 20	–
CCOC(=O)N1CCN(c2cccc(Nc3ncc(F)c(N(C)C4CCC4)n3)c2)CC1 [compound 130]	≤ 20	≤ 20	–
O=C(Nc1ccc(Nc2ncc(F)c(NC3CCC3)n2)cc1)c1ccccc1 [compound 131]	≤ 20	≤ 20	–
Fc1cnc(Nc2ccc(N3CCOCC3)cc2)nc1NC1CCC1 [compound 132]	≤ 20	≤ 20	–
CC(=O)N1CCN(c2ccc(Nc3ncc(F)c(NC4CCCC4)n3)cc2)CC1 [compound 133]	≤ 20	≤ 20	–
CN1CCN(c2ccc(Nc3ncc(F)c(NC4CCCC4)n3)cc2)CC1 [compound 134]	≤ 20	≤ 20	–
Fc1cnc(Nc2cccc(N3CCOCC3)c2)nc1NC1CCCC1 [compound 135]	≤ 20	≤ 20	–
CC(=O)N1CCN(c2cccc(Nc3ncc(F)c(NC4CCCC4)n3)c2)CC1 [compound 136]	≤ 20	≤ 20	–
CN1CCN(c2cccc(Nc3ncc(F)c(NC4CCCC4)n3)c2)CC1 [compound 137]	≤ 20	≤ 20	–
CC(=O)N(C)c1ccc(Nc2ncc(F)c(NC3CCCCC3)n2)cc1 [compound 150]	≤ 20	≤ 20	–
CN1CCN(c2ccc(Nc3ncc(F)c(NC4CCCCC4)n3)cc2Cl)CC1 [compound 153]	≤ 20	≤ 20	–
CC(=O)N1CCN(c2ccc(Nc3ncc(F)c(NC4CCC4)n3)cc2)CC1 [compound 154]	≤ 20	≤ 20	–
CN1CCN(c2ccc(Nc3ncc(F)c(NC4CCCCC4)n3)cc2)CC1 [compound 155]	≤ 20	≤ 20	–

Structure (SMILES)	IC50 (A549 cells; [3]) [µM]	IC50 (H1299 cells; [4]) [µM]	further results
Cc1cc(Nc2ncc(F)c(NC3CCC3)n2)ccc1N1CCN(C)CC1 [compound 166]	≤ 20	≤ 20	–
CCN1CCN(c2ccc(Nc3ncc(F)c(NC4CCC4)n3)cn2)CC1 [compound 167]	≤ 20	≤ 20	–
CCN1CCN(c2ccc(Nc3ncc(F)c(NC4CCCC4)n3)cn2)CC1 [compound 168]	≤ 20	≤ 20	–
CCN1CCN(c2ccc(Nc3ncc(F)c(NC4CCCCC4)n3)cn2)CC1 [compound 169]	≤ 20	≤ 20	–
Cc1cc(Nc2ncc(F)c(NC3CCC3)n2)cnc1N1CCN(C)CC1 [compound 171]	≤ 20	≤ 20	–
Cc1cc(Nc2ncc(F)c(NC3CCCC3)n2)cnc1N1CCN(C)CC1 [compound 172]	≤ 20	≤ 20	–
Cc1cc(Nc2ncc(F)c(NC3CCCCC3)n2)cnc1N1CCN(C)CC1 [compound 173]	≤ 20	≤ 20	–
CN1CCN(c2ccc(Nc3ncc(F)c(NC4CCC4)n3)cc2CO)CC1 [compound 174]	≤ 20	≤ 20	–
NC(=O)c1ccc(Nc2ncc(F)c(NC3CCCC3)n2)cc1 [compound 175]	≤ 20	> 20	–
CCN(CC)CCNC(=O)c1ccc(Nc2ncc(F)c(NC3CCCC3)n2)cc1 [compound 176]	≤ 20	≤ 20	–
COC(=O)CNC(=O)c1ccc(Nc2ncc(F)c(NC3CCCC3)n2)cc1 [compound 177]	≤ 20	≤ 20	–
CN1CCN(c2ccc(Nc3ncc(F)c(NC4CC(C)(C)N(C)C(C)(C)C4)n3)cc2)CC1 [compound 178]	≤ 20	≤ 20	–
CN1CCN(c2cccc(Nc3ncc(F)c(NC4CC(C)(C)N(C)C(C)(C)C4)n3)c2)CC1 [compound 179]	≤ 20	≤ 20	–
CN1CCN(c2ccc(Nc3ncc(F)c(NC4CC(C)(C)N(C)C(C)(C)C4)n3)cc2Cl)CC1 [compound 180]	≤ 20	≤ 20	–
Cc1cc(Nc2ncc(F)c(NC3CC(C)(C)N(C)C(C)(C)C3)n2)ccc1N1CCN(C)CC1 [compound 181]	≤ 20	≤ 20	–
CN1CCN(c2ccc(Nc3ncc(F)c(NC4CC(C)(C)N(C)C(C)(C)C4)n3)cc2C(F)(F)F)CC1 [compound 182]	≤ 20	≤ 20	–
CCN1CCN(c2ccc(Nc3ncc(F)c(NC4CC(C)(C)N(C)C(C)(C)C4)n3)cn2)CC1 [compound 183]	≤ 20	≤ 20	–
Cc1cc(Nc2ncc(F)c(NC3CC(C)(C)N(C)C(C)(C)C3)n2)cnc1N1CCN(C)CC1 [compound 184]	≤ 20	≤ 20	–
CCOC(=O)N1CCC(Nc2nc(Nc3ccc(N4CCN(C)CC4)cc3)ncc2F)CC1 [compound 185]	≤ 20	≤ 20	–
CCOC(=O)N1CCC(Nc2nc(Nc3cccc(N4CCN(C)CC4)c3)ncc2F)CC1 [compound 186]	≤ 20	≤ 20	–
CCOC(=O)N1CCC(Nc2nc(Nc3ccc(N4CCN(C)CC4)c(Cl)c3)ncc2F)CC1 [compound 187]	≤ 20	≤ 20	–
CCOC(=O)N1CCC(Nc2nc(Nc3ccc(N4CCN(C)CC4)c(C)c3)ncc2F)CC1 [compound 188]	≤ 20	≤ 20	–

Structure (SMILES)	IC50 (A549 cells; [3]) [µM]	IC50 (H1299 cells; [4]) [µM]	further results
CCOC(=O)N1CCC(Nc2nc(Nc3ccc(N4CCN(C)CC4)c(C(F)(F)F)c3)ncc2F)CC1 [compound 189]	≤ 20	≤ 20	–
CCOC(=O)N1CCC(Nc2nc(Nc3ccc(N4CCN(C)CC4)nc3)ncc2F)CC1 [compound 190]	≤ 20	≤ 20	–
CC(=O)N1CCN(c2cccc(Nc3ncc(F)c(Nc4cc(C(C)(C)C)[nH]n4)n3)c2)CC1 [compound 200]	–	–	IC50 (A549 cells; [5]): ≤ 20 µM; IC50 (H1299 cells; [6]): ≤ 20 µM
CCOC(=O)N1CCN(c2cccc(Nc3ncc(F)c(Nc4cc(C(C)(C)C)[nH]n4)n3)c2)CC1 [compound 201]	–	–	IC50 (A549 cells; [5]): ≤ 20 µM; IC50 (H1299 cells; [6]): ≤ 20 µM
CC(=O)N1CCN(c2ccc(Nc3ncc(F)c(Nc4cc(C(C)(C)C)[nH]n4)n3)cc2)CC1 [compound 202]	–	–	IC50 (A549 cells; [5]): ≤ 20 µM; IC50 (H1299 cells; [6]): ≤ 20 µM
Cc1cc(C)cc(Nc2ncc(F)c(Nc3ccc4c(c3)NC(=O)C(C)O4)n2)c1 (stereo not drawn) [compound 230]	–	–	IC50 (H1299 cells; [2]): ≤ 20 µM
COc1cc(Nc2ncc(F)c(Nc3cc(OC)cc(OC)c3)n2)cc(OC)c1 [compound 840]	–	–	IC50 (H1299 cells; H1299 (lung) cells, in vitro antiproliferation): ≤ 20 µM
NC(=O)COc1ccc(Nc2ncc(F)c(Nc3ccc(OCC(N)=O)cc3)n2)cc1 [compound 971]	–	–	IC50 (A549 cells; [7]): > 20 µM
COC(=O)COc1ccc(Nc2nc(Nc3ccc(OCC(N)=O)cc3)ncc2F)cc1 [compound 973]	–	–	IC50 (A549 cells; [7]): > 20 µM
COC(=O)COc1cccc(Nc2ncc(F)c(Nc3cccc(O)c3)n2)c1 [compound 976]	–	–	IC50 (A549 cells; [7]): > 20 µM
COC(=O)COc1cccc(Nc2ncc(F)c(Nc3ccc(OC(C)C)cc3)n2)c1 [compound 977]	–	–	IC50 (A549 cells; [7]): > 20 µM
Oc1ccc(Nc2ncc(F)c(Nc3ccc(O)c(C(F)(F)F)c3)n2)cc1C(F)(F)F [compound 996]	–	–	IC50 (A549 cells; [7]): < 20 µM
Cc1cccc(Nc2ncc(F)c(Nc3cccc(C)c3)n2)c1 [compound 997]	–	–	IC50 (A549 cells; [7]): ≤ 20 µM
Cc1ccc(Nc2ncc(F)c(Nc3ccc(C)cc3)n2)cc1 [compound 998]	–	–	IC50 (A549 cells; [7]): > 20 µM
CNC(=O)COc1cccc(Nc2ncc(F)c(Nc3ccc(OCCC(=O)OC)cc3)n2)c1 [compound 1002]	–	–	IC50 (A549 cells; [7]): > 20 µM
CCOC(=O)CCOc1ccc(Nc2nc(Nc3cccc(OCC(=O)NC)c3)ncc2F)cc1 [compound 1003]	–	–	IC50 (A549 cells; [7]): > 20 µM
CNC(=O)COc1cccc(Nc2ncc(F)c(Nc3ccc(O)cc3)n2)c1 [compound 1004]	–	–	IC50 (A549 cells; [7]): > 20 µM
C=CCNc1ncc(F)c(Nc2ccc3c(c2)OCCO3)n1 [compound 1037]	> 20	–	–
COc1ccc(Nc2ncc(F)c(Nc3ccc4c(c3)OCCO4)n2)c(OC)c1 [compound 1045]	> 20	–	–
CC(C)(CC1CCC1)n1ncc2ccc(Nc3ncc(F)c(Nc4ccc(Cl)c(Cl)c4)n3)cc21 [compound 1103]	–	–	IC50 (H1299 cells; H1299 (lung) cells): > 20 µM
Cn1nc(-c2ccccc2)cc1Nc1nc(Nc2cccc(-c3ncco3)c2)ncc1F [compound 1161]	–	–	IC50 (A549 cells; Homo sapiens, A549 (lung) cells): ≤ 20 µM
